Laboratory results published in patent US20180057505A1, “BICYCLIC HETEROARYL COMPOUNDS USEFUL AS INHIBITORS OF THE PAR-2 SIGNALING PATHWAY” (VERTEX PHARMACEUTICALS INCORPORATED, priority 2015, published 2018).

What was measured:
Type in all cases: cell-based
[1] = system: Thrombin-stimulated Ca2+ response in HT-29 cells; experiment: Ca FLIPR TETRA assay, ANTAGONIST mode, activator 1 U/mL Thrombin; conditions: for IC50: HT-29 cells, activator 1 U/mL Thrombin
In short: (§1)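 Antagonist mode, HT-29: cells O/N 37 °C, 1% FBS; calcium 5 dye 45 min 37 °C + 15 min RT; cpd (DMSO, HBSS-diluted) 30 min RT; activator at final conc. (8 μM SLIGKV / 1 U/mL thrombin / 3.1 U/mL trypsin / 0.6 μM UTP); FLIPR Tetra Ca2+ read.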

PAR2 (HT-29 cells) [2] = molecular target: T1, PAR2 (HT-29 cells) (Homo sapiens, UniProt P55085); experiment: Ca FLIPR TETRA assay, ANTAGONIST mode, activator 3.1 U/mL trypsin; conditions: for IC50: HT-29 cells, activator 3.1 U/mL trypsin
T1 construct: host or cells: HT-29
T1 sequence (P55085 26-397): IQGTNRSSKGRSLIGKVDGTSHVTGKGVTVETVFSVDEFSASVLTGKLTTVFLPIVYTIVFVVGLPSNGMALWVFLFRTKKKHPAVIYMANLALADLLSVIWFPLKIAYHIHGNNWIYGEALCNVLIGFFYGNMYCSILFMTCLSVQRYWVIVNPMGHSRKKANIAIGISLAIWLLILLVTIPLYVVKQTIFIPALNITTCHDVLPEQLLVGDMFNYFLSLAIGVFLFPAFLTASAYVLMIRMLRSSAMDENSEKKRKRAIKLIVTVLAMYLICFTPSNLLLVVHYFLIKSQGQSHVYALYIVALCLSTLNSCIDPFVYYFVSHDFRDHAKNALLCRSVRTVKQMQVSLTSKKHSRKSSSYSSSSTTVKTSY
In short: as §1

PAR2 (HT-29 cells) [3] = molecular target: T1, PAR2 (HT-29 cells); experiment: Ca FLIPR TETRA assay, ANTAGONIST mode, activator 8 μM SLIGKV; conditions: for IC50: HT-29 cells, activator 8 μM SLIGKV
In short: as §1

[4] = system: UTP-stimulated Ca2+ response in HT-29 cells; experiment: Ca FLIPR TETRA assay, ANTAGONIST mode, activator 0.6 μM UTP; conditions: for IC50: HT-29 cells, activator 0.6 μM UTP
In short: as §1

[5] = Method A: maximal concentration of antagonist 0.1, 1 or 2 μM
[6] = maximal antagonist concentration per Method (A: 0.1, 1 or 2 μM; B: 50 μM)

| SMILES | IC50 ([1]; Homo sapiens) | IC50 (PAR2 (HT-29 cells) [2]; [5]) | IC50 (PAR2 (HT-29 cells) [3]; [5]) | IC50 ([4]; Homo sapiens) | IC50 (PAR2 (HT-29 cells) [2]; [6]) | IC50 (PAR2 (HT-29 cells) [3]; [6]) | other results |
| --- | --- | --- | --- | --- | --- | --- | --- |
| CC(C)c1cc(-c2ccc(F)cc2)nc2cc(C(=O)N3CCN(C(=O)OC(C)(C)C)C[C@H]3C)oc12 [Example I-78] |  |  |  |  |  |  | IC50 [1]: > 50000 nM; Trypsin, % @ 50 (PAR2 (HT-29 cells) [2]; @ 50 (μM)): 65% @ 50; SLIGKV, % @ 50 (PAR2 (HT-29 cells) [3]; @ 50 (μM)): 70% @ 50; IC50 [4]: > 50000 nM |
| CC(C)c1cc(-c2ccc(F)cc2)nc2cc(C(=O)N3CCN(C(=O)C4(O)CCOCC4)CC3(C)C)oc12 [Example I-23] | 7800 nM |  |  | 11000 nM | 71 nM | 80 nM |  |
| C[C@H]1CN(C(=O)c2cc3nc(-c4ccc(F)cc4)cc(C4(C)CC4)c3o2)CCN1C(=O)C1CC1 [Example I-116] | 13000 nM |  |  | 6900 nM | 990 nM | 350 nM |  |
| Cc1cncc(N2CCN(C(=O)c3cc4nc(-c5ccc(Cl)c(F)c5)cc(C(C)(C)C)c4o3)C(C)(C)C2=O)n1 [Example I-334] | > 2000 nM | 1.6 nM | 1.4 nM | > 2000 nM |  |  |  |
| CC[C@@H](O)C(=O)N1CCN(C(=O)c2cc3nc(-c4ccc(F)cc4)cc(C4(C)CC4)c3o2)C(C)(C)C1 [Example I-28] | 8800 nM |  |  | 11000 nM | 3.5 nM | 4.2 nM |  |
| CC(C)c1cc(-c2ccc(F)cc2)nc2cc(C(=O)N3CCN(C(=O)C(C)(C)C)CC3(C)C)oc12 [Example I-14] |  |  |  |  | 3 nM | 2.8 nM | Thrombin, % @ 50 ([1]; @ 50 (μM)): 57% @ 50; inhibition at 50 µM ([4]; Homo sapiens, HT-29, @ 50 (μM)): 59% |
| CC(C)c1cc(-c2ccc(F)cc2)nc2cc(C(=O)N3CCN(C(=O)C4CC4(F)F)CC3(C)C)oc12 (single isomer, unassigned) [Example I-76] |  |  |  |  | 100 nM | 33 nM | IC50 [1]: > 50000 nM; UTP, % @ 50 ([4]; @ 50 (μM)): 56% @ 50 |
| CC1(C)CCC(c2cc(C(C)(C)C)c3oc(C(=O)N4CCN(c5ccccn5)CC4(C)C)cc3n2)CC1 [Example I-270] | > 2000 nM |  |  | > 2000 nM | 51 nM | 21 nM |  |
| CC1(C)CCC(c2cc(C(C)(C)C)c3oc(C(=O)N4CCN(c5ncc(C(=O)O)cc5F)CC4(C)C)cc3n2)CC1 [Example I-391] | > 1010 nM | 0.4 nM | 0.4 nM | 1010 nM |  |  |  |
| Cc1ccc(-c2cc(C(C)(C)C)c3oc(C(=O)N4CCNC(=O)C4(C)C)cc3n2)cc1 [Example I-165] | > 1000 nM |  |  | > 1000 nM | 19 nM | 16 nM |  |
| CCOC(=O)N1CCN(C(=O)c2cc3nc(-c4ccc(F)cc4)cc(C4(C)CC4)c3o2)C(C)(C)C1 [Example I-108] | > 50000 nM |  |  | > 50000 nM | 1.8 nM | 2.2 nM |  |
| CC(C)c1cc(-c2ccc(F)cc2)nc2cc(C(=O)N3CCN(C(=O)c4ccno4)CC3(C)C)oc12 [Example I-13] | 1000 nM |  |  | 1200 nM | 4.5 nM | 3 nM |  |
| CC(C)c1cc(-c2ccc(F)cc2)nc2cc(C(=O)N3CCN(C(=O)c4ccn[nH]4)CC3(C)C)oc12 [Example I-65] | 2700 nM |  |  | 2800 nM | 16 nM | 10 nM |  |
| CCc1cc(-c2ccc(F)cc2)nc2cc(C(=O)N3CCN(C(=O)[C@H]4C[C@](O)(C(F)(F)F)C4)CC3(C)C)oc12 [Example I-150] | > 1000 nM |  |  | > 1000 nM | 1.6 nM | 1.1 nM |  |
| CC(C)(C)c1cc(-c2ccc(Cl)c(F)c2)nc2cc(C(=O)N3CCN(C(=O)[C@@H]4CC[C@@H]4C(=O)O)CC3(C)C)oc12 [Example I-543] | > 2000 nM | 0.8 nM | 0.6 nM | > 2000 nM |  |  |  |
| CC(C)c1cc(-c2ccc(F)cc2)nc2cc(C(=O)N3CCN(C(=O)C4(O)CCC4)CC3(C)C)oc12 [Example I-8] | 3600 nM |  |  | 20000 nM | 28 nM | 29 nM |  |
| CCS(=O)(=O)NCC(=O)N1CCN(C(=O)c2cc3nc(C4CC5(CCC5)C4)cc(C(C)(C)C)c3o2)C(C)(C)C1 [Example I-293] | > 2000 nM |  |  | > 2000 nM | 6.7 nM | 5.4 nM |  |
| CC(C)(C)c1cc(N2CCC(C(C)(C)O)CC2)nc2cc(C(=O)N3CCN(C(=O)[C@H]4C[C@](C)(O)C4)CC3(C)C)oc12 [Example I-442] | > 2000 nM | > 2000 nM | > 2000 nM | > 2000 nM |  |  |  |
| CC(C)(C)c1cc(-c2ccc(Cl)c(F)c2)nc2cc(C(=O)N3CCN(c4ncc(-c5nnn[nH]5)cn4)CC3(C)C)oc12 [Example I-331] | 1800 nM | 2.8 nM | 1.3 nM | > 2000 nM |  |  |  |
| CN1CCN(C(=O)c2cc3nc(-c4cccc(Cl)c4)cc(C(C)(C)C)c3o2)C(C)(C)C1=O [Example I-242] | > 2000 nM |  |  | > 2000 nM | 24 nM | 19 nM |  |
| CC(C)C(=O)N1CCN(C(=O)c2cc3nc(-c4ccc(F)cc4)cc(C4(C)CC4)c3o2)C(C)(C)C1 [Example I-46] | 4100 nM |  |  | 5300 nM | 7 nM | 7.9 nM |  |
| CC(C)(C)c1cc(-c2ccc(Cl)c(F)c2)nc2cc(C(=O)N3CCN(C(=O)[C@@H]4CCS(=O)(=O)N4)CC3(C)C)oc12 [Example I-472] | > 2000 nM | 20 nM | 33.9 nM | > 2000 nM |  |  |  |
| COCC(=O)N1CCN(C(=O)c2cc3nc(-c4ccc(F)cc4)cc(C(C)C)c3o2)C(C)(C)C1 [Example I-17] | 14000 nM |  |  | 15000 nM | 67 nM | 59 nM |  |
| CC1(C)CCC(c2cc(C(C)(C)C)c3oc(C(=O)N4CCN(C(=O)CCC(=O)O)CC4(C)C)cc3n2)CC1 [Example I-418] | > 1250 nM | 5.6 nM | 2.1 nM | > 1250 nM |  |  |  |
| Cc1nnc(C(=O)N2CCN(C(=O)c3cc4nc(-c5ccc(C(F)(F)F)cc5)cc(C(C)(C)C)c4o3)C(C)(C)C2)[nH]1 [Example I-174] | > 1000 nM |  |  | > 1000 nM | 3.2 nM | 1.9 nM |  |
| CC(C)c1cc(-c2ccc(F)cc2)nc2cc(C(=O)N3CCN(C(=O)C4(C)CC4)CC3(C)C)oc12 [Example I-19] | 10000 nM |  |  | 5700 nM | 4.4 nM | 5.6 nM |  |

The next lines start with results.

| IC50 ([1]; Homo sapiens) | IC50 (PAR2 (HT-29 cells) [2]; [5]) | IC50 (PAR2 (HT-29 cells) [3]; [5]) | IC50 ([4]; Homo sapiens) | IC50 (PAR2 (HT-29 cells) [2]; [6]) | IC50 (PAR2 (HT-29 cells) [3]; [6]) | SMILES | other results |
| --- | --- | --- | --- | --- | --- | --- | --- |
| 1800 nM | 0.7 nM | 0.4 nM | 2000 nM |  |  | CC(C)[C@H](CC(=O)N1CCN(C(=O)c2cc3nc(-c4ccc(Cl)cc4)cc(C(C)(C)C)c3o2)C(C)(C)C1)C(=O)O [Example I-333] |  |
| > 500 nM | 1.8 nM | 0.7 nM | > 500 nM |  |  | CC(C)(C)c1cc(-c2ccc(Cl)cc2)nc2cc(C(=O)N3CCN(c4cncc(C(=O)O)c4)CC3(C)C)oc12 [Example I-477] |  |
| > 500 nM | 1.6 nM | 0.7 nM | > 500 nM |  |  | Cc1nc(N2CCN(C(=O)c3cc4nc(-c5ccc(Cl)c(F)c5)cc(C(C)(C)C)c4o3)C(C)(C)C2)oc1C(=O)O [Example I-476] |  |
| > 1000 nM |  |  | > 1000 nM | 2.4 nM | 0.9 nM | CC(C)(C)c1cc(-c2ccc(Cl)cc2)nc2cc(C(=O)N3CCN(C(=O)c4nnc[nH]4)CC3(C)C)oc12 [Example I-169] |  |
| > 2000 nM | 32 nM | 21 nM | > 2000 nM |  |  | CC(C)(C)c1cc(-c2ccc(Cl)cc2)nc2cc(C(=O)N3CCN(c4ccccn4)C(=O)C3(C)C)oc12 [Example I-330] |  |
| > 2000 nM | 15 nM | 13 nM | > 2000 nM |  |  | Cc1ccc(N2CCN(C(=O)c3cc4nc(-c5ccc(Cl)cc5)cc(C(C)(C)C)c4o3)C(C)(C)C2=O)nc1C(=O)O [Example I-495] |  |
| 1900 nM | 0.9 nM | 0.8 nM | 1500 nM |  |  | CC(C)(C)c1cc(-c2ccc(Cl)cc2)nc2cc(C(=O)N3CCN(c4nccc(C(=O)O)n4)CC3(C)C)oc12 [Example I-457] |  |
| > 2000 nM | 2.8 nM | 3.6 nM | > 2000 nM |  |  | CC(C)(C)c1cc(-c2ccc(Cl)cc2)nc2cc(C(=O)N3CCN(c4ncccn4)C(=O)C3(C)C)oc12 [Example I-483] |  |
| > 2000 nM |  |  | > 2000 nM | 14 nM | 21 nM | CC(C)(C)c1cc(-c2ccc(Cl)cc2)nc2cc(C(=O)N3CCN(c4ccccn4)CC3(C)C)oc12 [Example I-272] |  |
| > 2000 nM |  |  | > 2000 nM | 9.4 nM | 5.6 nM | CC(C)(C)c1cc(-c2ccc(F)cc2)nc2cc(C(=O)N3CCN(c4ccn[nH]4)C(=O)C3(C)C)oc12 [Example I-235] |  |
| > 2000 nM |  |  | > 2000 nM | 1900 nM | 770 nM | CC(C)(C)c1cc(-c2ccc(Cl)cc2)nc2cc(C(=O)N3CCN(c4ccncc4)CC3(C)C)oc12 [Example I-262] |  |
